Laboratory results as given in ChEMBL document CHEMBL5543058, “The application of PROTAC in HDAC” (Eur J Med Chem, 2023).
Values belong to the compound of their own block, whether it stands above or below them.

Columns and labels:
A549 [1] = assay: Growth inhibition of human A549 cells incubated for 72 hrs by MTT assay; format: functional
[2] = target: T1, Histone deacetylase 8 (Homo sapiens) (UniProt Q9BY41); assay: Induction of HDAC8 degradation in human A549 cells assessed as maximum degradation at 0.1 to 160 uM measured after 10 hrs by Western blot analysis relative to control; format: cell-based; conditions: dose 0.1-160 µM
T1 sequence (whole entry): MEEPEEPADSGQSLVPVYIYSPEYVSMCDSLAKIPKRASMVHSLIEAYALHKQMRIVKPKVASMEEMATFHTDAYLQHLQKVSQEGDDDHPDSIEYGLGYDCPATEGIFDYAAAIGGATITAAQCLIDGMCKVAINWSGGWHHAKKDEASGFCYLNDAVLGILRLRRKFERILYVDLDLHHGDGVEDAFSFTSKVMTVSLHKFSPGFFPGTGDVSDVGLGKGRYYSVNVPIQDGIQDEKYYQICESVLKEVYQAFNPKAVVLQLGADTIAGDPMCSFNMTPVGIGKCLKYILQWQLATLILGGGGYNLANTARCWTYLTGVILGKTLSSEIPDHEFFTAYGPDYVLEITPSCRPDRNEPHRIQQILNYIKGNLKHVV

[3] = target: Protein cereblon/Histone deacetylase 8 (Homo sapiens, UniProt Q9BY41+Q96SW2); assay: PROTAC activity at HDAC8/CRBN in human A549 cells assessed as degradation of HDAC8 by Western blot analysis; format: cell-based
Jurkat = assay: Growth inhibition of human Jurkat cells; format: functional
Histone deacetylase 8 = target: T2, Histone deacetylase 8 (Homo sapiens, UniProt Q9BY41); assay: Inhibition of HDAC8 (unknown origin) using acetyl-Gly-Ala-(N-acetyl-Lys)-amino-4-methylcoumarin as substrate measured after 30 mins by fluorescence assay
T2 sequence (Q9BY41 whole entry): T1 sequence (whole entry)

[4] = target: von Hippel-Lindau disease tumor suppressor/Histone deacetylase 1 (Homo sapiens, UniProt Q13547+P40337); assay: Protac activity at VHL/LSD1/HDAC1/CoREST complex interaction in human HCT-116 cells assessed as HDAC1 degradation by fluorescence based assay; format: cell-based
[5] = target: von Hippel-Lindau disease tumor suppressor/Histone deacetylase 2 (Homo sapiens, UniProt Q92769+P40337); assay: Protac activity at VHL/LSD1/HDAC2/CoREST complex interaction in human HCT-116 cells assessed as induction of HDAC2 degradation by fluorescence based assay; format: cell-based
[6] = target: von Hippel-Lindau disease tumor suppressor/Histone deacetylase 3 (Homo sapiens, UniProt O15379+P40337); assay: Protac activity at VHL/LSD1/HDAC3/CoREST complex interaction in human HCT-116 cells assessed as induction of HDAC3 degradation by fluorescence based assay; format: cell-based
A549 [7] = assay: Antiproliferative activity against human A549 cells assessed as inhibition of cell growth measured after 48 hrs by SRB assay; format: functional

von Hippel-Lindau disease tumor suppressor/Histone deacetylase 1, sequence (Q13547 whole entry): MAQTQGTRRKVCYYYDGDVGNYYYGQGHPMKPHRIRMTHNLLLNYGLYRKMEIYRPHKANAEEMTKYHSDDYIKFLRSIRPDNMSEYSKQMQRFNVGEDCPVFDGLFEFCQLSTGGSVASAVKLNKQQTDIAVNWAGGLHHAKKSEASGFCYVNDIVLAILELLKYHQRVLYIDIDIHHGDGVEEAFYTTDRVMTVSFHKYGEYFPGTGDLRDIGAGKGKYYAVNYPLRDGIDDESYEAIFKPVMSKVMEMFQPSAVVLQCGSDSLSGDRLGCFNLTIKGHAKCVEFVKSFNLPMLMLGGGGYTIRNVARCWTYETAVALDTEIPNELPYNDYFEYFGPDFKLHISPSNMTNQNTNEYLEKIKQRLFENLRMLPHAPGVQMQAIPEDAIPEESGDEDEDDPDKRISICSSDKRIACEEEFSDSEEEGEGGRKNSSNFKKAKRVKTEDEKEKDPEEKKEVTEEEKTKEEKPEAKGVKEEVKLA
von Hippel-Lindau disease tumor suppressor/Histone deacetylase 1, sequence (P40337 whole entry): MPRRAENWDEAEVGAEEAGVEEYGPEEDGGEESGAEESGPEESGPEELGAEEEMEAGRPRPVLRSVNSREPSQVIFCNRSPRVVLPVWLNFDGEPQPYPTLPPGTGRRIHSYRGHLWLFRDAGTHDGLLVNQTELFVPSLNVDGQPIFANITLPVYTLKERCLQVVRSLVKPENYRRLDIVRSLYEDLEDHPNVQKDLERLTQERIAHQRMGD
Protein cereblon/Histone deacetylase 8, sequence (Q96SW2 whole entry, one chain of several): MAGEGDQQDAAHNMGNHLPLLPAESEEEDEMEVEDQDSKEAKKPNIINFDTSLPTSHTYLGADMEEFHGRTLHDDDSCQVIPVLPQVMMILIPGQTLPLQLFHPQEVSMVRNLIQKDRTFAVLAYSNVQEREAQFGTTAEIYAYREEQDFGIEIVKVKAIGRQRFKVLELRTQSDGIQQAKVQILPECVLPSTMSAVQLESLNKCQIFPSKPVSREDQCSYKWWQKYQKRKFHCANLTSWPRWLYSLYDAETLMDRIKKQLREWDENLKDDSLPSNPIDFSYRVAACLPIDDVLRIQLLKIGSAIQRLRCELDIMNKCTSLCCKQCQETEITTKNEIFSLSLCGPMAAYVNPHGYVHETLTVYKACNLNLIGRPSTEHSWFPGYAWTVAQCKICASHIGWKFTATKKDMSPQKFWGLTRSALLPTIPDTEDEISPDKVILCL
von Hippel-Lindau disease tumor suppressor/Histone deacetylase 2, sequence (Q92769 whole entry): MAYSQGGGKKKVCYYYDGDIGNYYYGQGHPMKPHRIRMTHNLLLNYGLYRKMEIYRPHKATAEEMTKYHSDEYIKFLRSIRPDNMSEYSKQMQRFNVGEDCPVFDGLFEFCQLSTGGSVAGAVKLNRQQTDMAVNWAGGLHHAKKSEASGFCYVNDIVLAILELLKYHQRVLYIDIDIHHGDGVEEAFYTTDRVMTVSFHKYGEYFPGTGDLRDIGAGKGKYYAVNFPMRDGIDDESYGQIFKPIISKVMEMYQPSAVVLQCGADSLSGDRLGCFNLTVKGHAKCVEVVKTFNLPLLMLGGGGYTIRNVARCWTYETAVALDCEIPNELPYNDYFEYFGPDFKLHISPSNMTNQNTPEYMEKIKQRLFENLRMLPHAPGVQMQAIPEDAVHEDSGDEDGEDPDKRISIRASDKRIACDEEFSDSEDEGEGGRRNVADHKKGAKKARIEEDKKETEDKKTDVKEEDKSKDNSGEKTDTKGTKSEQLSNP
von Hippel-Lindau disease tumor suppressor/Histone deacetylase 2, sequence (P40337 whole entry): as the sequence (P40337 whole entry) above
von Hippel-Lindau disease tumor suppressor/Histone deacetylase 3, sequence (O15379 whole entry): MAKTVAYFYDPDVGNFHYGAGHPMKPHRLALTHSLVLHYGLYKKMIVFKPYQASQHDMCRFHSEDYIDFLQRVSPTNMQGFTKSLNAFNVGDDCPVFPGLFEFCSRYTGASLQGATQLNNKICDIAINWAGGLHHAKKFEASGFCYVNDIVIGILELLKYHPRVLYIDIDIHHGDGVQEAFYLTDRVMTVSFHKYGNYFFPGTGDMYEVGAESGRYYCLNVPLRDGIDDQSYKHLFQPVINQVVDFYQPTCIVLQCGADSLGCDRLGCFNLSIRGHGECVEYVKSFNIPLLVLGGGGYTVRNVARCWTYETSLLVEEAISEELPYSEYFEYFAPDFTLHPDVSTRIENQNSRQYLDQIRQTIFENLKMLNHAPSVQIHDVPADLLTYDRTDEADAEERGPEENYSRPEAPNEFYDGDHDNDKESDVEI
von Hippel-Lindau disease tumor suppressor/Histone deacetylase 3, sequence (P40337 whole entry): as the sequence (P40337 whole entry) above

- GI50 (Jurkat): 780 nM
- IC50 (Histone deacetylase 8): 372 nM
SMILES: O=C1CCC(N2C(=O)c3cccc(NCCCCCCCCCCCNC(=O)c4cccc(SCc5cn(-c6cccc(C(=O)NO)c6)nn5)c4)c3C2=O)C(=O)N1 (stereo unspecified)

- GI50 (A549 [7]): 15800 nM
SMILES: COc1ccc(Cn2ccc3ccc(C(=O)NO)cc32)cc1

The remaining lines, values behind:

SMILES: O=C1CCC(N2C(=O)c3cccc(NCc4cn(CCOCCOc5ccc(Cn6ccc7ccc(C(=O)NO)cc76)cc5)nn4)c3C2=O)C(=O)N1 (stereo unspecified)
- GI50 (A549 [1]): 9550 nM
- Emax [2]: 95%
- DC50 [3]: 580 nM

SMILES: O=C(NO)c1cccc(-n2cc(CSc3ccccc3)nn2)c1
- GI50 (Jurkat): 7090 nM
- IC50 (Histone deacetylase 8): 53 nM

SMILES: Cc1ncsc1-c1ccc(CNC(=O)[C@@H]2C[C@@H](O)CN2C(=O)[C@@H](NC(=O)CCCCCCCCCCC(=O)Nc2ccc(C(=O)Nc3ccccc3N)cc2)C(C)(C)C)cc1
- DC50 [4]: 1000 nM
- DC50 [5]: 1000 nM
- DC50 [6]: 1000 nM
